# Species on record: Rattus norvegicus
# Assay: Open TG-GATES - Regimen: Single
# Type: toxicity, organism-based, Sprague-Dawley
# Set-up: regimen Single, gender Male, age 6 weeks
# Details: in vivo, po, route gavage; for Bas / Eos / Fbg / Hb / Ht / Lym / MCHC / MCV / Mono / Neu / PT / Plat / RBC / Ret / WBC / APTT: tissue Blood; for KIDNEY_L / KIDNEY_R / KIDNEY_TOTAL: tissue Kidney; for LIVER: tissue Liver
# [1] = 300 mg/kg, 3 h, dose level Middle
# [2] = 300 mg/kg, 3 h, tissue Plasma, dose level Middle
# [3] = 300 mg/kg, 6 h, dose level Middle
# [4] = 300 mg/kg, 6 h, tissue Plasma, dose level Middle
# [5] = 300 mg/kg, 9 h, dose level Middle
# [6] = 300 mg/kg, 9 h, tissue Plasma, dose level Middle
# [7] = 300 mg/kg, 24 h, dose level Middle
# [8] = 300 mg/kg, 24 h, tissue Plasma, dose level Middle
smiles,measurement,setting,value
CN(C)C(=N)N=C(N)N [METFORMIN],Bas,[1],0%
same,Eos,[1],1%
same,Fbg,[1],256.8 mg/dL
same,Hb,[1],12.8 g/dL
same,Ht,[1],39.1%
same,Lym,[1],72.6%
same,MCHC,[1],32.9%
same,MCV,[1],64.2 fL
same,Mono,[1],2.8%
same,Neu,[1],23.2%
same,PT,[1],12.3 s
same,Plat,[1],125.2 x10_4/uL
same,RBC,[1],612.2 x10_4/ul
same,Ret,[1],10.1%
same,WBC,[1],96 x10_2/uL
same,KIDNEY_L,[1],0.9 g
same,KIDNEY_R,[1],0.9 g
same,KIDNEY_TOTAL,[1],1.7 g
same,LIVER,[1],8.1 g
same,ALP,[2],1196.4 IU/L
same,ALT,[2],58 IU/L
same,AST,[2],77.2 IU/L
same,BUN,[2],8.8 mg/dL
same,CRE,[2],0.2 mg/dL
same,Ca,[2],11.1 mg/dL
same,Cl,[2],106.2 meq/L
same,DBIL,[2],0.01 mg/dL
same,GLC,[2],156.2 mg/dL
same,IP,[2],9 mg/dL
same,K,[2],3.8 meq/L
same,LDH,[2],65 IU/L
same,Na,[2],140.6 meq/L
same,PL,[2],132.2 mg/dL
same,RALB,[2],2.5 g/dL
same,TBIL,[2],0.038 mg/dL
same,TG,[2],46.2 mg/dL
same,TP,[2],5.2 g/dL
same,gamma-GTP,[2],1.2 IU/L
same,TERMINAL_BW,[3],200 g
same,APTT,[3],16.3 s
same,Bas,[3],0.2%
same,Eos,[3],1%
same,Fbg,[3],254 mg/dL
same,Hb,[3],12.8 g/dL
same,Ht,[3],38.1%
same,Lym,[3],75.6%
same,MCHC,[3],33.6%
same,MCV,[3],63 fL
same,Mono,[3],3%
same,Neu,[3],20.2%
same,PT,[3],12.5 s
same,Plat,[3],113.5 x10_4/uL
same,RBC,[3],604.4 x10_4/ul
same,Ret,[3],9.6%
same,WBC,[3],95.4 x10_2/uL
same,KIDNEY_L,[3],0.9 g
same,KIDNEY_R,[3],0.9 g
same,KIDNEY_TOTAL,[3],1.7 g
same,LIVER,[3],7.3 g
same,ALP,[4],1116.6 IU/L
same,ALT,[4],85 IU/L
same,AST,[4],85.6 IU/L
same,BUN,[4],8.4 mg/dL
same,CRE,[4],0.2 mg/dL
same,Ca,[4],11 mg/dL
same,Cl,[4],105.6 meq/L
same,DBIL,[4],0.004 mg/dL
same,GLC,[4],153.4 mg/dL
same,IP,[4],10.3 mg/dL
same,K,[4],4.1 meq/L
same,LDH,[4],51.8 IU/L
same,Na,[4],140 meq/L
same,PL,[4],126 mg/dL
same,RALB,[4],2.5 g/dL
same,TBIL,[4],0.04 mg/dL
same,TG,[4],28.2 mg/dL
same,TP,[4],5.1 g/dL
same,gamma-GTP,[4],1 IU/L
same,TERMINAL_BW,[5],199.7 g
same,APTT,[5],15.9 s
same,Bas,[5],0%
same,Eos,[5],1%
same,Fbg,[5],250.2 mg/dL
same,Hb,[5],12.8 g/dL
same,Ht,[5],38.2%
same,Lym,[5],75%
same,MCHC,[5],33.6%
same,MCV,[5],64.1 fL
same,Mono,[5],2.6%
same,Neu,[5],20.4%
same,PT,[5],12.4 s
same,Plat,[5],111.7 x10_4/uL
same,RBC,[5],595.8 x10_4/ul
same,Ret,[5],10.1%
same,WBC,[5],82.7 x10_2/uL
same,KIDNEY_L,[5],0.8 g
same,KIDNEY_R,[5],0.9 g
same,KIDNEY_TOTAL,[5],1.7 g
same,LIVER,[5],6.8 g
same,ALP,[6],1220.2 IU/L
same,ALT,[6],61.2 IU/L
same,AST,[6],75.6 IU/L
same,BUN,[6],9 mg/dL
same,CRE,[6],0.1 mg/dL
same,Ca,[6],10.7 mg/dL
same,Cl,[6],106.6 meq/L
same,DBIL,[6],0.008 mg/dL
same,GLC,[6],162.6 mg/dL
same,IP,[6],10.2 mg/dL
same,K,[6],4 meq/L
same,LDH,[6],52.2 IU/L
same,Na,[6],140.8 meq/L
same,PL,[6],126.6 mg/dL
same,RALB,[6],2.5 g/dL
same,TBIL,[6],0.042 mg/dL
same,TG,[6],26.2 mg/dL
same,TP,[6],5 g/dL
same,gamma-GTP,[6],1.4 IU/L
same,TERMINAL_BW,[7],208.8 g
same,APTT,[7],16.1 s
same,Bas,[7],0%
same,Eos,[7],0.8%
same,Fbg,[7],235.6 mg/dL
same,Hb,[7],13.2 g/dL
same,Ht,[7],39.1%
same,Lym,[7],75.2%
same,MCHC,[7],33.8%
same,MCV,[7],63.3 fL
same,Mono,[7],3%
same,Neu,[7],20.6%
same,PT,[7],12.5 s
same,Plat,[7],112.7 x10_4/uL
same,RBC,[7],617.8 x10_4/ul
same,Ret,[7],9.3%
same,WBC,[7],73.1 x10_2/uL
same,KIDNEY_L,[7],0.9 g
same,KIDNEY_R,[7],0.9 g
same,KIDNEY_TOTAL,[7],1.8 g
same,LIVER,[7],9.7 g
same,ALP,[8],1591.2 IU/L
same,ALT,[8],52.4 IU/L
same,AST,[8],77.8 IU/L
same,BUN,[8],15.2 mg/dL
same,CRE,[8],0.2 mg/dL
same,Ca,[8],11.2 mg/dL
same,Cl,[8],104.6 meq/L
same,DBIL,[8],0.014 mg/dL
same,GLC,[8],178 mg/dL
same,IP,[8],8.9 mg/dL
same,K,[8],4.1 meq/L
same,LDH,[8],80 IU/L
same,Na,[8],141.4 meq/L
same,PL,[8],146.6 mg/dL
same,RALB,[8],2.5 g/dL
same,TBIL,[8],0.03 mg/dL
same,TC,[8],83.4 mg/dL
same,TG,[8],87 mg/dL
same,TP,[8],5.4 g/dL
same,gamma-GTP,[8],1 IU/L
same,TERMINAL_BW,"1000 mg/kg, 3 h, dose level High",201 g

# — ChEMBL document CHEMBL3885861, “Open TG-GATES”
